Laboratory results reported in PMC12521909, “Camizestrant in Combination with Three Globally Approved CDK4/6 Inhibitors in Women with ER+, HER2− Advanced Breast Cancer: Results from SERENA-1” (Clinical Cancer Research, 2025).

Experiments:
[1] = Plasma pharmacokinetics by validated LC/MS-MS (cycle 1, day 15); format: in vivo; conditions: human, oral; for AUC / Cmax: Cycle 1 Day 15, geomean; for Tmax: Cycle 1 Day 15, median
Protocol: Details of safety and efficacy assessments and of ctDNA sampling and assessments have been described previously ([37]). For PK analyses, plasma concentrations of camizestrant, abemaciclib, palbociclib, and ribociclib were determined using validated LC/MS-MS.
Details of assessments and analysis sets have been described previously ([38]). Briefly, safety was assessed in the safety analysis set, and efficacy and antitumor activity were assessed in the evaluable-for-response set. PK was assessed in the PK analysis set, which included all patients who provided at least one quantifiable postdose PK concentration for either camizestrant or any of the other agents evaluated.

[2] = system: women with ER+, HER2− advanced breast cancer; assay: Digital, centrally read triplicate ECGs (resting heart rate, QTcF); set-up: species or system human; conditions: in vivo
Excerpt: Digital, centrally read, triplicate ECGs were obtained throughout the study.

[3] = 75 mg, camizestrant 75 mg monotherapy
[4] = 150 mg, camizestrant 150 mg monotherapy
[5] = 300 mg, camizestrant 300 mg monotherapy
[6] = camizestrant 75 mg + abemaciclib
[7] = camizestrant 75 mg + palbociclib
[8] = camizestrant 75 mg + ribociclib (400 mg)
[9] = camizestrant 75 mg + ribociclib (600 mg)
[10] = camizestrant 150 mg + abemaciclib
[11] = camizestrant 150 mg + palbociclib
[12] = camizestrant 300 mg + palbociclib

## C[C@@H]1Cc2c(ccc3[nH]ncc23)[C@@H](c2ccc(NC3CN(CCCF)C3)cn2)N1CC(F)(F)F [camizestrant]
[1]; [3]
  AUC: 862 ng·h/mL
  Cmax: 64.7 ng/mL
  Tmax: 3.72 h
[1]; [4]
  AUC: 2160 ng·h/mL
  Cmax: 166 ng/mL
  Tmax: 2.17 h
[1]; [5]
  AUC: 4780 ng·h/mL
  Cmax: 376 ng/mL
  Tmax: 3 h
[1]; across combinations, PK sampled up to 24 hours, likely underestimated, read-out: Estimated half-life of camizestrant
  half-life: 9.5 to 17 h
[1]; [6]
  AUC: 1120 ng·h/mL
  Cmax: 85.4 ng/mL
  Tmax: 4 h
[1]; [7]
  AUC: 1200 ng·h/mL
  Cmax: 93.9 ng/mL
  Tmax: 4 h
[1]; [8]
  AUC: 2280 ng·h/mL
  Cmax: 154 ng/mL
  Tmax: 3.6 h
[1]; [9]
  AUC: 2750 ng·h/mL
  Cmax: 179 ng/mL
  Tmax: 4 h
[1]; [10]
  AUC: 2050 ng·h/mL
  Cmax: 159 ng/mL
  Tmax: 4 h
[1]; [11]
  AUC: 2420 ng·h/mL
  Cmax: 189 ng/mL
  Tmax: 3.92 h
[1]; [12]
  AUC: 4940 ng·h/mL
  Cmax: 386 ng/mL
  Tmax: 4 h
[2]
  Time of gradual decrease in resting HR to stable nadir: approximately 14 days
